Data on four compounds can be found in patent US20170121322A1, “BET-PROTEIN INHIBITING 3,4-DIHYDROPYRIDO[2,3-B]PYRAZINONES WITH META-SUBSTITUTED AROMATIC AMINO- OR ETHER GROUPS” (Bayer Pharma Aktiengesellschaft, priority 2014, published 2017).

Broadly, the IC50 is the point on the concentration scale where inhibition reaches its midpoint. Low readings indicate inhibition by little substance, high ones a need for much substance.

One assay deals with MOLM-13 cells. The experiment in a line: Cell proliferation assay MOLM-13, method 1 (alamarBlue). In kind it is cell-based. Particulars: Homo sapiens, acute myeloid leukaemia cells, 4000 cells/well, 96-well, 96 hours. On the procedure: (§1) In accordance with the invention, the ability of the substances to inhibit cell proliferation was determined. Cell viability was determined by means of the alamarBlue® reagent (Invitrogen) in a Victor X3 Multilabel Reader (Perkin Elmer). The excitation wavelength was 530 nm and the emission wavelength […].
The MOLM-13 cells (DSMZ, ACC 554) were seeded at a concentration of 4000 cells/well in 100 μl of growth medium (RPMI1640, 10% FCS) on 96-well microtitre plates (method 1).
(§2) After overnight incubation at 37° C., the fluorescence values (CI values) were determined. Then the plates were treated with various substance dilutions (1E-5 M, 3E-6 M, 1E-6 M, 3E-7 M, 1E-7 M, 3E-8 M, 1E-8 M) and incubated at 37° C. over 96 hours (MOLM-13, B16F10, CHL-1 cells) or 120 hours (MOLP-8 cells). Subsequently, the fluorescence values were determined (CO values). For the data analysis, the CI values were subtracted from the CO values and the results were compared between cells which had been treated with various dilutions of the substance or only with buffer solution. The IC50 values (substance concentration needed for 50% inhibition of cell proliferation) were calculated therefrom.
(§3) The substances were tested in the cell lines in Table 2, which represent the indications specified by way of example: […]

In another assay the test system is CHL-1 cells. The experiment in a line: Cell proliferation assay CHL-1 (alamarBlue). In kind it is cell-based. The settings on record: Homo sapiens, melanoma (BRAF wild-type) cells, 96 hours. As to the method: as §1
The CHL-1 cells (ATCC, CRL-9446) were seeded at a concentration of 1000 cells/well in 100 μl of growth medium (DMEM with glutamine, 10% FCS) on 96-well microtitre plates.
as §2, §3

Assay [1] has as its target T1, BRD4 bromo domain 2 [BRD4(2)] (Homo sapiens, UniProt O60885).
T1 construct: N-terminally His6-tagged BRD4(2) (amino acids 357-445); made in house; host or cells: E. coli
Description: BRD4(2)/acetylated peptide H4 TR-FRET binding assay. The settings on record: His6-BRD4(2) (aa 357-445) vs acetylated histone H4 peptide. Put shortly: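 His6-BRD4(2) (aa 357-445, E. coli-expressed, 100 nM) pre-incubated 10 min with compound (11 concentrations, 0.1 nM-20 μM, duplicates), then with biotinylated tetra-acetylated H4 peptide in HEPES pH 7.5 buffer, 1 h at 22 °C plus 3 h to overnight at 4 °C. TR-FRET 665/620 ratio; IC50 from 4-parameter fit.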

In a further assay the test system is B16F10 cells. The experiment in a line: Cell proliferation assay B16F10 (alamarBlue). Particulars: Mus musculus, B16-F10, melanoma (BRAF wild-type) cells, 96 hours. In kind it is cell-based. As to the method: as §1
The B16F10 cells (ATCC, CRL-6475) were seeded at a concentration of 300-500 cells/well in 100 μl of growth medium (DMEM with phenol red, 10% FCS) on 96-well microtitre plates.
as §2, §3
In general terms: The colour change of resazurin is a common sign of viable cells or microbes.

A further assay relates to MOLP-8 cells. Description: Cell proliferation assay MOLP-8 (alamarBlue). In kind it is cell-based. Particulars: Homo sapiens, multiple myeloma cells, 120 hours. On the procedure: as §1
The MOLP-8 cells (DSMZ, ACC 569) were seeded at a concentration of 4000 cells/well in 100 μl of growth medium (RPMI1640, 20% FCS) on 96-well microtitre plates.
as §2, §3

Turning to `COc1ccc(S(=O)(=O)C(C)C)cc1Nc1ccc2c(n1)N(C(C)C)[C@H](C)C(=O)N2C` [Example 16, (3R)-4-Isopropyl-6-{[5-(isopropylsulphonyl)-2-methoxyphenyl]amino}-1,3-dimethyl-3,4-dihydropyrido[2,3-b]pyrazin-2(1H)-one], the half-maximal inhibitory concentration (IC50) in the assay with MOLM-13 cells was 0.184 µM; with CHL-1 cells, 0.076 µM; in assay [1], 0.033 µM; with B16F10 cells it was 0.18 µM; with MOLP-8 cells it was 0.135 µM.
Consider `CC1C(=O)N(C)c2ccc(Nc3cccc(S(C)(=O)=O)c3)nc2N1c1ccccc1` (centres unmarked) [Example 17, 1,3-Dimethyl-6-{[3-(methylsulphonyl)phenyl]amino}-4-phenyl-3,4-dihydropyrido[2,3-b]pyrazin-2(1H)-one], for which the IC50 worked out at 1.41 µM in the assay with MOLM-13 cells; 0.8 µM in the assay with CHL-1 cells; 0.212 µM in assay [1]; 1.1 µM in the assay with B16F10 cells; 1.06 µM in the assay on MOLP-8 cells.
`Cc1cc(Nc2ccc3c(n2)N(C2CCOCC2)[C@H](C)C(=O)N3C)ccn1` [Example 42, (3R)-1,3-Dimethyl-6-[(2-methylpyridin-4-yl)amino]-4-(tetrahydro-2H-pyran-4-yl)-3,4-dihydropyrido[2,3-b]pyrazin-2(1H)-one]: the IC50 stood at 0.686 µM in the assay with MOLM-13 cells; 0.445 µM in the assay with CHL-1 cells; 0.18 µM in assay [1]; 1.08 µM in the assay with B16F10 cells; 0.436 µM with MOLP-8 cells.
With `C[C@@H]1C(=O)N(C)c2ccc(Nc3cccc(C(F)(F)F)c3)nc2N1C1CCOCC1` [Example 43, (3R)-1,3-Dimethyl-4-(tetrahydro-2H-pyran-4-yl)-6-{[3-(trifluoromethyl)phenyl]amino}-3,4-dihydropyrido[2,3-b]pyrazin-2(1H)-one], the IC50 with MOLM-13 cells was determined as 1.22 µM; in the assay on CHL-1 cells, 0.707 µM; in assay [1], 0.234 µM; in the assay on B16F10 cells, 1.08 µM; in the assay on MOLP-8 cells it was 0.911 µM.
